Data on 5 molecules can be found in patent US10550143B2, “C,O-spiro aryl glycoside compounds, preparation therefor and use thereof” (SHANGHAI INSTITUTE OF MATERIA MEDICA, CHINESE ACADEMY OF …, priority 2015, dated 2020).

Molecules are shown by their SMILES.

One assay has as its target T1, hSGLT1 (Homo sapiens, UniProt P13866).
T1 sequence (P13866 1-664): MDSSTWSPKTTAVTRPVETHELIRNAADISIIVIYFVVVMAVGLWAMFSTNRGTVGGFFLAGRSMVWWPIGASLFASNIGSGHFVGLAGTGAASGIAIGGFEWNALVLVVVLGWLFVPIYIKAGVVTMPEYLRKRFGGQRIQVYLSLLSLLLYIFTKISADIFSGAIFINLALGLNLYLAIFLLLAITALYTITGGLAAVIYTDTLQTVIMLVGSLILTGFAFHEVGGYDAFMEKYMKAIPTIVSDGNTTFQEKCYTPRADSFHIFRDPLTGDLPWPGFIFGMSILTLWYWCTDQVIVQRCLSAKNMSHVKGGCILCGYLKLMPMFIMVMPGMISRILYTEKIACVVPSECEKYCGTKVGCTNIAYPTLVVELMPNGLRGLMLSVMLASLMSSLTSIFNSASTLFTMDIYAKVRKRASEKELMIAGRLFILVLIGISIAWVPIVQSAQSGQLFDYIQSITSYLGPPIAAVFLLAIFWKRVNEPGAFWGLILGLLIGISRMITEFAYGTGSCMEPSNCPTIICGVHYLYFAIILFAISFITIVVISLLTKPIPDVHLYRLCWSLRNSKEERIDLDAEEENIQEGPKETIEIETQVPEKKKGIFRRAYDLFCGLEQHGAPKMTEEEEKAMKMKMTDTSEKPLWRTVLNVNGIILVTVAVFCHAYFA
Nature of the assay: In vitro SGLT1 inhibition (hSGLT1 IC50 test). As to conditions: read-out: IC50 ± SD SGLT1. The class given is cell-based.

For a further assay, the system named is SD rats. The assay is described as follows: Acute single administration, urinary glucose changes in SD rats. The class given is in vivo, rat. Also noted: Urine glucose concentration / The total amount of glucose excreted: unit not given here. As to conditions: 1 mg/kg oral, after 24 h. The procedure: (1) Acutely Administering Compound to Observed the Urinary Glucose Changes in SD Rats
Thirty-eight male normal SD rats were selected and randomly divided into 5 groups according to body weight and blood glucose, 6-8 in each group. […] After oral gavage, the rats were placed in rats metabolic cages, and urine was collected after 24 h, and the urine volume was recorded, the urine sugar concentration was determined, and urinary sugar content was calculated according to the following formula. Urine content=urinary sugar concentration×urine volume
Glucose levels in urine are measured by the glucose assay kit.
Data were expressed as mean±standard deviation (x±s), and Student's t test was used for statistical analysis of the data, p<0.05 was considered statistically significant.

In assay [1] the target is T2, human sodium-glucose cotransporter 2 (SGLT2) (Homo sapiens, UniProt P31639).
T2 construct: expressed in transfected cells; host or cells: NIH3T3 (mouse fibroblast) cells expressing hSGLT2
T2 sequence (P31639 1-672): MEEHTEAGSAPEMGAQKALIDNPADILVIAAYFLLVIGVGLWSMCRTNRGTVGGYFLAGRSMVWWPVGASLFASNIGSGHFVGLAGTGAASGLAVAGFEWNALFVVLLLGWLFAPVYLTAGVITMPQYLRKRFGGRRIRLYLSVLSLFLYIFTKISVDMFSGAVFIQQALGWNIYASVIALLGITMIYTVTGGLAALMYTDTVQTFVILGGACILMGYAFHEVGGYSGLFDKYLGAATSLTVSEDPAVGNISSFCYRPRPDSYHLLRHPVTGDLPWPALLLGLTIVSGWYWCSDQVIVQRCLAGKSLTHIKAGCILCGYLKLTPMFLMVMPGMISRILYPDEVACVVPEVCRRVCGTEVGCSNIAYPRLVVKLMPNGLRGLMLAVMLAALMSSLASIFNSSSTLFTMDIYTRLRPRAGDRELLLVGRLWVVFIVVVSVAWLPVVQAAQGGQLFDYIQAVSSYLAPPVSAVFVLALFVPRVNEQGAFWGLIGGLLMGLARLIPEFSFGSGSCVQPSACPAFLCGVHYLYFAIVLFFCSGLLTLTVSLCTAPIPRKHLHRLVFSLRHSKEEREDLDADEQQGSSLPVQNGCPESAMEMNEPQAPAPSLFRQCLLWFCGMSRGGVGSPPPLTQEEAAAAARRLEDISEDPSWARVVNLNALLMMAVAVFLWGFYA
The assay is described as follows: In vitro SGLT2 inhibition, methyl-α-D-[U-14C]glucopyranoside uptake in NIH3T3-hSGLT2 cells. The class given is cell-based. As to conditions: for Selectivity: IC50 SGLT1/IC50 SGLT2; for inhibition at 0.01 µM: SGLT2, 10 nM, read-out: % Inhibition rate ± SD 10 nM; for inhibition at 0.1 µM: SGLT2, 100 nM, read-out: % Inhibition rate ± SD 100 nM; for IC50: read-out: IC50 ± SD SGLT2. The essentials:
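The readout was scintillation-counted uptake of 14C-labelled methyl-α-D-glucopyranoside (⅙ mM unlabelled in uptake buffer) in compound-containing KRH-Na+; KRH-acetylcholine defined background. Cells were butyrate-induced (2 mM) NIH3T3-hSGLT2 at 40000/well.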

For `C[C@H]1O[C@]2(OCc3cc(Cl)c(Cc4ccc(-c5ccc(F)cc5)s4)cc32)[C@H](O)[C@@H](O)[C@@H]1O` [Example A31], the half-maximal inhibitory concentration (IC50) (in general, the concentration at which inhibition is half-maximal) on hSGLT1 amounted to 70100 ± 7900 nM. For the same molecule, in the assay on SD rats (Table 3), the “The total amount of glucose excreted” value is 9.41 ± 6.18 and the Urine glucose concentration was determined as 1.50 ± 0.60. Also, the Urine volume in the assay with SD rats (Table 3, in mL) turned out to be 33.13 ± 9.99. Further, in assay [1], the Selectivity came out at 19483; the inhibition (usually the drop in the measured response relative to a control, in per cent) at 0.01 µM is 67.5 ± 5.7%; the inhibition at 0.1 µM is 91.5 ± 11.7%; the IC50 stood at 3.6 ± 0.7 nM.
On to `CCc1ccc(Cc2cc3c(cc2F)CO[C@]32O[C@H](C)[C@@H](O)[C@H](O)[C@H]2O)s1` [Example A42, (1S,3′R,4′S,5′S,6′R)-6′-methyl-6-((5-ethylthienyl)-2-methyl)-5-fluoro-3′,4′,5′,6′-tetrahydro-3H-spiro[isobenzofuran-1,2′-pyran]-3′,4′,5′-triol], for which the IC50 at hSGLT1 was 25900 ± 4290 nM. In the assay on SD rats (Table 4), the “The total amount of glucose excreted” value amounted to 2.56 ± 2.37 and the Urine glucose concentration is 0.82 ± 0.73. In the assay on SD rats (Table 4, in mL), this molecule yielded a Urine volume of 18.5 ± 3.51. In assay [1], the Selectivity stood at 988, the inhibition at 0.01 µM came to 62.4 ± 11.8%, the inhibition at 0.1 µM came out at 104 ± 2.8% and the IC50 amounted to 26.7 ± 2 nM.
On to `CCc1ccc(Cc2cc3c(cc2C)CO[C@]32O[C@H](C)[C@@H](O)[C@H](O)[C@H]2O)s1` [Example A57, (1S,3′R,4′S,5′S,6′R)-5,6′-dimethyl-6-((5-ethylthienzyl)-2-methyl)-3′,4′,5′,6′-tetrahydro-3H-spiro[isobenzofuran-1,2′-pyran]-3′,4′,5′-triol], for which the IC50 at hSGLT1 was 1930 ± 160 nM. In addition, in the assay on SD rats (Table 4), the “The total amount of glucose excreted” value is listed as 786.39 ± 96.43 and the Urine glucose concentration was found to be 232.39 ± 50.5. Further, the Urine volume in the assay with SD rats (Table 4, in mL) is listed as 19.17 ± 2.71. For the same molecule, in assay [1], the inhibition at 0.01 µM amounted to 31.1 ± 7.4%, the inhibition at 0.1 µM was found to be 95.4 ± 2.8% and the IC50 was 8.4 ± 0.7 nM.
`CC(O)c1ccc(Cc2cc3c(cc2Cl)CO[C@]32O[C@H](C)[C@@H](O)[C@H](O)[C@H]2O)s1` (stereo partly drawn) [Example A118, (1S,3′R,4′S,5′S,6′R)-5-chloro-6-((5-(1-hydroxyethyl)thiophene-2-yl)methyl)-6′-methyl-3′,4′,5′,6′-tetrahydro-3H-spiro[isobenzofuran-1,2′-pyran]-3′,4′,5′-triol]: the IC50 at hSGLT1 stood at 7200 ± 600 nM. For the same molecule, in assay [1], the Selectivity is listed as 166, the inhibition at 0.01 µM was 22.1 ± 3%, the inhibition at 0.1 µM is 91.8 ± 3.5% and the IC50 was found to be 43.4 ± 12.9 nM.
In the case of `C[C@H]1O[C@]2(OCc3cc(Cl)c(Cc4ccc(CCO)s4)cc32)[C@H](O)[C@@H](O)[C@@H]1O` [Example A119, (1S,3′R,4′S,5′S,6′R)-5-chloro-6-((5-(2-hydroxyethyl)thiophene-2-yl)methyl)-6′-methyl-3′,4′,5′,6′-tetrahydro-3H-spiro[isobenzofuran-1,2′-pyran]-3′,4′,5′-triol], on hSGLT1, the IC50 turned out to be 600 ± 80 nM. Also, in assay [1], the Selectivity is 167, the inhibition at 0.01 µM turned out to be 22 ± 3.1%, the inhibition at 0.1 µM turned out to be 80 ± 2.7% and the IC50 was determined as 3.6 ± 0.8 nM.
